# From ChEMBL document CHEMBL3407402, “Nintedanib: from discovery to the clinic” (J Med Chem, 2015)
# pEC50: −log10 of the molar value.
# How the values were obtained:
# [1] = Antitumor activity against human H460 cells in xenograft model assessed as tumor growth inhibition ratio; assay type: functional, NCI-H460
# [2] = Mean residence time in Rhesus monkey at 5 mg/kg, iv; assay type: ADME, organism-based, Macaca mulatta; set-up: dose 5 mg/kg, route intravenous; conditions: in vivo
# [3] = Cmax in Rhesus monkey at 5 mg/kg, iv; assay type: ADME, organism-based, Macaca mulatta; set-up: dose 5 mg/kg, route intravenous; conditions: in vivo
# [4] = Mean residence time in Cynomolgus monkey at 5 mg/kg, iv; assay type: ADME, organism-based, Macaca fascicularis; set-up: dose 5 mg/kg, route intravenous; conditions: in vivo
# [5] = Half life in Cynomolgus monkey at 5 mg/kg, iv; assay type: ADME, organism-based, Macaca fascicularis; set-up: dose 5 mg/kg, route intravenous; conditions: in vivo
# [6] = Inhibition of VEGF-stimulated HSMEC cell proliferation; assay type: functional; conditions: Homo sapiens
# [7] = Drug excretion in healthy male via biliary system into feces over 120 hrs; assay type: ADME, tissue-based; conditions: human, faeces, read-out: Drug excretion
# [8] = AUC in Rhesus monkey at 40 mg/kg, po; assay type: ADME, organism-based, Macaca mulatta; set-up: dose 40 mg/kg, route oral; conditions: plasma
# [9] = AUC in Wistar rat at 2 mg/kg, iv; assay type: ADME, organism-based; set-up: dose 2 mg/kg, route intravenous; conditions: plasma
# [10] = Cmax in cynomolgus monkey at 40 mg/kg, po; assay type: ADME, organism-based, Macaca fascicularis; set-up: dose 40 mg/kg, route oral; conditions: in vivo
# [11] = test system: Rattus norvegicus; experiment: Half life in Wistar rat at 2 mg/kg, iv; assay type: ADME, organism-based; set-up: dose 2 mg/kg, route intravenous; conditions: in vivo
# [12] = Cmax in CD1 mouse at 50 mg/kg, po; assay type: ADME, organism-based; set-up: dose 50 mg/kg, route oral; conditions: in vivo
# [13] = in vivo; conditions: rhesus monkey, iv, 5 mg/kg
# Description: Half life in Rhesus monkey at 5 mg/kg, iv
# [14] = Volume of distribution at steady state in Cynomolgus monkey at 5 mg/kg, iv; assay type: ADME, organism-based, Macaca fascicularis; set-up: dose 5 mg/kg, route intravenous; conditions: in vivo, read-out: Vdss
# [15] = Drug excretion in healthy male urine after 72 hrs; assay type: ADME, tissue-based; conditions: human, read-out: Drug excretion
# [16] = AUC in Cynomolgus monkey at 40 mg/kg, po; assay type: ADME, organism-based, Macaca fascicularis; set-up: dose 40 mg/kg, route oral; conditions: plasma
# [17] = AUC in CD1 mouse at 50 mg/kg, po; assay type: ADME, organism-based; set-up: dose 50 mg/kg, route oral; conditions: plasma
# [18] = Drug excretion in healthy male after 24 to 48 hrs; assay type: ADME, organism-based; conditions: human, in vivo, read-out: Drug excretion
# [19] = Cmax in Rhesus monkey at 40 mg/kg, po; assay type: ADME, organism-based, Macaca mulatta; set-up: dose 40 mg/kg, route oral; conditions: in vivo
# [20] = clinical; conditions: male, human, in vivo
# Description: Terminal half life in healthy male
# [21] = Clearance in Cynomolgus monkey at 5 mg/kg, iv; assay type: ADME, organism-based, Macaca fascicularis; set-up: dose 5 mg/kg, route intravenous; conditions: in vivo
# [22] = AUC in Cynomolgus monkey at 5 mg/kg, iv; assay type: ADME, organism-based, Macaca fascicularis; set-up: dose 5 mg/kg, route intravenous; conditions: plasma
# [23] = Volume of distribution at steady state in Rhesus monkey at 5 mg/kg, iv; assay type: ADME, organism-based, Macaca mulatta; set-up: dose 5 mg/kg, route intravenous; conditions: in vivo, read-out: Vdss
# [24] = AUC in Rhesus monkey at 5 mg/kg, iv; assay type: ADME, organism-based, Macaca mulatta; set-up: dose 5 mg/kg, route intravenous; conditions: plasma
# [25] = Cmax in Wistar rat at 50 mg/kg, po; assay type: ADME, organism-based; set-up: dose 50 mg/kg, route oral; conditions: in vivo
# [26] = Drug excretion in healthy male urine/feces after 96 hrs; assay type: ADME, tissue-based; conditions: human, urine and faeces, read-out: Drug excretion
# [27] = AUC in Wistar rat at 50 mg/kg, po; assay type: ADME, organism-based; set-up: dose 50 mg/kg, route oral; conditions: plasma
# [28] = Cmax in Wistar rat at 2 mg/kg, iv; assay type: ADME, organism-based; set-up: dose 2 mg/kg, route intravenous; conditions: in vivo
# [29] = Oral bioavailability in Wistar rat at 50 mg/kg; assay type: ADME, organism-based; conditions: in vivo
# [30] = Mean residence time in CD1 mouse at 50 mg/kg, po; assay type: ADME, organism-based; set-up: dose 50 mg/kg, route oral; conditions: in vivo
# [31] = Half life in CD1 mouse at 50 mg/kg, po; assay type: ADME, organism-based; set-up: dose 50 mg/kg, route oral; conditions: in vivo
# [32] = Clearance in Rhesus monkey at 5 mg/kg, iv; assay type: ADME, organism-based, Macaca mulatta; set-up: dose 5 mg/kg, route intravenous; conditions: in vivo
# [33] = Oral bioavailability in Rhesus monkey at 40 mg/kg; assay type: ADME, organism-based, Macaca mulatta; conditions: in vivo
# [34] = Oral bioavailability in Cynomolgus monkey at 40 mg/kg; assay type: ADME, organism-based, Macaca fascicularis; conditions: in vivo
# [35] = test system: Rattus norvegicus; experiment: Mean residence time in Wistar rat at 2 mg/kg, iv; assay type: ADME, organism-based; set-up: dose 2 mg/kg, route intravenous; conditions: in vivo
# [36] = Clearance in Wistar rat at 2 mg/kg, iv; assay type: ADME, organism-based; set-up: dose 2 mg/kg, route intravenous; conditions: in vivo
# [37] = Cmax in Cynomolgus monkey at 5 mg/kg, iv; assay type: ADME, organism-based, Macaca fascicularis; set-up: dose 5 mg/kg, route intravenous; conditions: in vivo
compound,measurement,setting,value
CC(=O)O[C@@]12CO[C@@H]1C[C@H](O)[C@@]1(C)C(=O)[C@H](O)C3=C(C)[C@@H](OC(=O)[C@H](O)[C@@H](NC(=O)OC(C)(C)C)c4ccccc4)C[C@@](O)([C@@H](OC(=O)c4ccccc4)[C@H]21)C3(C)C.O.O.O [DOCETAXEL],TGI,[1],66%
CCS(=O)(=O)O.COC(=O)c1ccc2c(c1)NC(=O)/C2=C(\Nc1ccc(N(C)C(=O)CN2CCN(C)CC2)cc1)c1ccccc1 [NINTEDANIB ESYLATE],MRT,[2],5.7 h
same,Cmax,[3],1090 ng/mL
same,MRT,[4],3.82 h
same,half-life,[5],5.95 h
same,pEC50,[6],> 8.00
same,dose excreted at 120 h,[7],93.4%
same,AUC,[8],4440 ng·h/mL
same,TGI,[1],75%
same,AUC,[9],181 ng·h/mL
same,Cmax,[10],175 ng/mL
same,t1/2,[11],3.95 h
same,Cmax,[12],547 ng/mL
same,half-life,[13],7.09 h
same,Vd,[14],8.64 L/kg
same,dose excreted at 72 h,[15],0.7%
same,AUC,[16],2390 ng·h/mL
same,AUC,[17],2720 ng·h/mL
same,dose excreted,[18],56.3%
same,Cmax,[19],311 ng/mL
same,half-life,[20],13 h
same,clearance,[21],37.5 mL/min/kg
same,AUC,[22],2260 ng·h/mL
same,Vd,[23],10.4 L/kg
same,AUC,[24],2830 ng·h/mL
same,Cmax,[25],105 ng/mL
same,dose excreted at 96 h,[26],92.4%
same,AUC,[27],375 ng·h/mL
same,Cmax,[28],124 ng/mL
same,bioavailability,[29],11.9%
same,MRT,[30],5.19 h
same,half-life,[31],5.15 h
same,clearance,[32],30.2 mL/min/kg
same,bioavailability,[33],23.8%
same,bioavailability,[34],13.2%
same,MRT,[35],3.25 h
same,clearance,[36],202 mL/min/kg
same,Cmax,[37],1300 ng/mL
